18 compounds from EP0491041A1, “ANTIVIRAL DRUG” (NIPPON SHINYAKU COMPANY, LIMITED, priority 1989, dated 1991) can be followed below.

The subject of one data set is virus. Description: Antiviral action test: screening by inhibition of cell degeneration effect (CPE) in virus-infected HeLa cells. It is filed as cell-based. To be noted: amount of added drug whereby the CPE became 50%, M.O.I = 0.002, culture for three days. The method, then: HeLa cells were subjected to subcultured by monolayer culture (Eagle's MEM-10% CS) and infected as M.O.I. (multiplicity of infection) = 0.01.
On the first day, HeLa cells were spread in a 75 cm³ flask and cultured on a one-day growth medium (Eagle's MEM-10% CS). On the second day, old medium was removed after confirming the formation of cell sheet, then M.O.I was made 0.01 PFU/cell and 0.5 ml of virus solution was added. The original virus solution was diluted with PBS-3% FCS solution. Operation of the virus inoculation was conducted by tilting for 1 hour at room temperature. After virus was inoculated on the cells, the virus-inoculated solution was removed, washed twice with 10 ml PBS and the residual virus solution was removed. Then 15 ml of maintenance medium (Eagle's MEM-1% CS) was added and cultured at 37°C for 2 days. The cells were observed from time to time and the culture was continued until cell fusion and cell rounding were confirmed. After the culture, medium was recovered which was used as a virus solution and was stored at -20°C until actual use.
The 78 cm³ flask containing HeLa cells which were subjected to a monolayer maintenance subculture was taken out, the old medium was discarded, 2-3 ml of 0.25% trypsine (Difco = 1:250)-0.02% EDTA/PBS(-) solution was added, tilted for a few seconds, the trypsine solution was removed and warmed at 37°C for 5 minutes. Then fresh medium was added, pipetted with a Komagome pipette and the cells were homogeneously dispersed.
Cells were counted using a cytometer, then fresh medium was added, diluted to make the cell concentration 5 x 10⁵ cells/ml, 2 ml of that was added to a laboratory dish of 35 mm diameter and cultured in a CO₂-incubator at 37°C for one day to prepare cell sheet.
The virus solution was diluted by a diluting solution to make diluted solutions of ten-times difference or step. The laboratory dish wherein HeLa cells were cultured on the previous day was taken out from the incubator, old medium was discarded and the cells were washed with each 2 ml of PBS twice. Properly diluted virus solution (0.2 ml) was added to each laboratory dish, subjected to a tilting at room temperature for 60 minutes immediately and virus was inoculated. Then the virus solution was removed, each 2 ml of 0.5% methylcellulose/Eagle's MEM-1% CS was added and cultured in a CO₂ incubator for 4 days.
The cultured laboratory dish was taken out from the CO₂-incubator and methylcellulose medium was removed. Then cells were washed with 2 ml of PDS, 2 ml of methanol was added, allowed to stand for 10 minutes and cells were immobilized and, at the same time, virus was sterilized. Hematoxylin dyeing solution (2 ml) was added to the laboratory dish which was immobilized with methanol, allowed to stand for about 10 minutes, washed with water and air-dried at room temperature. Since the cells destructed with virus were not dyed, plaque area was noted as a void and the plaque numbers were counted whereby virus value (PFU/ml) (Plaque forming units/ml) was measured.
HeLa cells during the subculture were dispersed with trypsine liquid-EDTA solution, 5 x 10⁵ cells/pore were embedded on a plate having 24 pores and cultured overnight at 37°C in a CO₂-incubator to prepare cell sheet.
As mentioned above, old medium was discarded, the cells were washed with PBS, the virus solution was diluted to make M.O.I = 0.002, 0.1 ml of it was added to each pore, subjected to a tilting at room temperature for 60 minutes and virus was inoculated to the cell.
Virus solution was removed from the cells after inoculation of virus, the cells were washed with 2 ml of PBS, each 1 ml of maintenance medium was added to each pore, then each 10 µl of the drug was added and the cells were cultured in a CO₂-incubator. Culture was conducted for three days.
The cells on the plate were observed under an invert microscope. Cell degeneration effect (CPE) was observed as cell fusion and making the cells round. […]

Data set [1] in a line: Acute toxicity test in mice. It is filed as in vivo. Particulars: male mice, ddY strain, observation for one week. The method, then:
Four male mice (ddY strain; six weeks age) were used for each drug tested.
In the intraperitoneal administration, each drug was suspended in 0.5% CMC-physiological saline solution and 0.1 ml (per 10 g body weight of mouse) of the suspension was intraperitoneally given to mouse. In the case of oral administration, each drug was suspended in 0.5% CMC-physiological saline solution and 0.2 ml (per 10 g body weight of mouse) of the suspension was given orally. Observation was started soon after administration and, after observation for one week, the mice were killed by chloroform and subjected to autopsied. LD₅₀ of each drug tested was given in the following tables wherefrom it is clear that the compounds of the present invention are safe.

Each structure is given as a SMILES string. In brackets after ≈: the same amount, converted by molar mass.

On to `OC[C@@H]1[C@@H](O)[C@H](O)[C@@H](O)CN1CCCCOc1ccc(Cl)cc1` [Compound No. 141, N-[4-(4-Chlorophenoxy)butyl]moranoline], for which, in the data set on virus, the “EC50 (50% CPE inhibition)” value was 1 µg/mL (≈ 2.89 µM). Moreover, the “L D ₅₀” value in data set [1] (Intraperitoneal Administration) is listed as above 300 mg/kg; in data set [1] (Oral Administration), > 5,000 mg/kg.

For `OC[C@@H]1[C@@H](O)[C@H](O)[C@@H](O)CN1CCCCc1ccc(Oc2ccccc2)cc1` [Compound No. 205, N-[4-(4-Phenoxyphenyl)butyl]moranoline], the “L D ₅₀” value is recorded as above 300 mg/kg in data set [1] (Intraperitoneal Administration) and > 5,000 mg/kg in data set [1] (Oral Administration).

For the compound `CC(=CCCN1C[C@H](O)[C@@H](O)[C@H](O)[C@H]1CO)c1ccc(Oc2ccccc2)cc1` [Compound No. 115, N-[4-(4-Phenoxyphenyl)-3-pentenyl]moranoline], the “EC50 (50% CPE inhibition)” value in the data set on virus stood at 1 µg/mL (≈ 2.5 µM). Further, the “L D ₅₀” value is above 300 mg/kg in data set [1] (Intraperitoneal Administration) and > 5,000 mg/kg in data set [1] (Oral Administration).

As to `CC(=CCN1C[C@H](O)[C@@H](O)[C@H](O)[C@H]1CO)c1ccc(C)cc1` [Compound No. 104, N-(gamma-Methyl-4-methylcinnamyl)moranoline], the “EC50 (50% CPE inhibition)” value with virus was 10 µg/mL (≈ 32.5 µM). Besides, the “L D ₅₀” value in data set [1] (Intraperitoneal Administration) is on record as above 300 mg/kg; in data set [1] (Oral Administration), > 5,000 mg/kg.

Consider `CCN1C[C@H](O)[C@@H](O)[C@H](O)[C@H]1CO` [B, N-ethylmoranoline, reference compound], for which the “EC50 (50% CPE inhibition)” value with virus was above 100 µg/mL.

For `OC[C@@H]1[C@@H](O)[C@H](O)[C@@H](O)CN1CC=C(c1ccccc1)c1ccc(F)cc1` [Compound No. 100, N-(gamma-Phenyl-4-fluorocinnamyl)moranoline], the “EC50 (50% CPE inhibition)” value in the data set with virus amounted to 10 µg/mL (≈ 26.8 µM).

As for `CC(=CCCN1C[C@H](O)[C@@H](O)[C@H](O)[C@H]1CO)c1cccc(Cl)c1` [Compound No. 111, N-[4-(3-Chlorophenyl)-3-pentenyl]moranoline], in the data set on virus, the “EC50 (50% CPE inhibition)” value is 30 µg/mL (≈ 87.8 µM).

With `OC[C@@H]1[C@@H](O)[C@H](O)[C@@H](O)CN1CCCOc1ccc(Cl)cc1` [Compound No. 93, N-[3-(4-Chlorophenoxy)propyl]moranoline], in the data set with virus, the “EC50 (50% CPE inhibition)” value amounted to 30 µg/mL (≈ 90.4 µM).

Turning to `CCCCCCCCCCCCCC(=O)N1C[C@H](O)[C@@H](O)[C@H](O)[C@H]1CO` [Compound No. 174, N-Myristoylmoranoline], in the data set with virus, the “EC50 (50% CPE inhibition)” value was determined as 10 µg/mL (≈ 26.8 µM).

For the compound `Cc1ccc(CCCCN2C[C@H](O)[C@@H](O)[C@H](O)[C@H]2CO)cc1F` [Compound No. 150, N-[4-(3-Fluoro-4-methylphenyl)butyl]moranoline], the “EC50 (50% CPE inhibition)” value with virus stood at 30 µg/mL (≈ 91.6 µM).

As for `COc1ccc(C(C)=CCN2C[C@H](O)[C@@H](O)[C@H](O)[C@H]2CO)cc1` [Compound No. 103, N-(magga-Methyl-4-methoxycinnamyl)moranoline], in the data set on virus, the “EC50 (50% CPE inhibition)” value amounted to 30 µg/mL (≈ 92.8 µM). For the same compound, the figures for the “L D ₅₀” value in data set [1] (Intraperitoneal Administration) and in data set [1] (Oral Administration) were above 300 mg/kg and > 5,000 mg/kg, respectively.

As for `Cc1ccc(S(=O)(=O)O)cc1.OC[C@@H]1[C@@H](O)[C@H](O)[C@@H](O)CN1CCCC=Cc1ccccc1` [Compound No. 89, N-(5-Phenyl-4-pentenyl)moranoline tosylate], the “EC50 (50% CPE inhibition)” value with virus turned out to be 10 µg/mL.

With `CCOc1ccc(C(C)=CCCN2C[C@H](O)[C@@H](O)[C@H](O)[C@H]2CO)cc1` [Compound No. 118, N-[4-(4-Ethoxyphenyl)-3-pentenyl]moranoline], the “EC50 (50% CPE inhibition)” value in the data set with virus amounted to 30 µg/mL (≈ 85.4 µM).

With `COCCOc1cccc(C(C)=CCN2C[C@H](O)[C@@H](O)[C@H](O)[C@H]2CO)c1` [Compound No. 157, N-[3-(3-Methoxyethoxyphenyl)-2-butenyl]moranoline], the “EC50 (50% CPE inhibition)” value in the data set with virus was found to be 100 µg/mL (≈ 272 µM).

On to `COc1ccc(C=CCCCN2C[C@H](O)[C@@H](O)[C@H](O)[C@H]2CO)c(C)c1` [Compound No. 151, N-[5-(4-Methoxy-2-methylphenyl)-4-pentenyl]moranoline], for which the “EC50 (50% CPE inhibition)” value in the data set with virus was determined as 30 µg/mL (≈ 85.4 µM).

Turning to `CCCCCCCCCCCCCCCCCC(=O)N1C[C@H](O)[C@@H](O)[C@H](O)[C@H]1CO` [Compound No. 171, N-Stearoylmoranoline], the “EC50 (50% CPE inhibition)” value in the data set on virus was 30 µg/mL (≈ 69.8 µM).

Take `O.OC[C@@H]1[C@@H](O)[C@H](O)[C@@H](O)CN1CC=C(c1ccccc1)c1ccc(Cl)cc1` [Compound No. 99, N-(gamma-Phenyl-4-chlorocinnamyl)moranoline monohydrate]: in the data set on virus, the “EC50 (50% CPE inhibition)” value turned out to be 30 µg/mL.

Turning to `CC(=CCN1C[C@H](O)[C@@H](O)[C@H](O)[C@H]1CO)c1ccc(Cl)c(Cl)c1` [Compound No. 102, N-(gamma-Methyl-3,4-dichlorocinnamyl)moranoline], the “EC50 (50% CPE inhibition)” value in the data set with virus was 10 µg/mL (≈ 27.6 µM).
